Source: patent publication US9199979B2, “Thiazolylphenyl-benzenesulfonamido derivatives as kinase inhibitors” (NERVIANO MEDICAL SCIENCES S.R.L., priority 2011, dated 2015)

Tests used:
Type in all cases: cell-based
[1] = test system: human melanoma cells A375 (with a mutated B-Raf); assay: In vitro cell proliferation assay, A375; details: A-375, 72 h treatment, cellular ATP readout
Procedure: (§1) Exponentially growing human melanoma cells A375 (with a mutated B-Raf) and human melanoma cells Mewo (with wild-type B-Raf) were seeded and incubated at 37° C. in a humidified 5% CO2 atmosphere. After 24 h, scalar doses of the compound were added to the medium and cells incubated for 72 h. At the end of treatment, cells were washed and counted. Cell number was determined by a cellular adenosine triphosphate monitoring system. Cell proliferation was compared to control cells and the concentration inhibiting cell growth by 50% was calculated.

[2] = test system: human melanoma cells Mewo (with wild-type B-Raf); assay: In vitro cell proliferation assay, Mewo; details: 72 h treatment, cellular ATP readout
Procedure: as §1

[3] = test system: p-MAPK (T202/Y204) in A375 human melanoma cells, having a mutated B-Raf; assay: p-MAPK (T202/Y204) ArrayScan assay; details: A-375, 1.5 or 2 h treatment, p-MAPK staining, read-out: Array Scan A375 IC50
Procedure: A375 human melanoma cells, having a mutated B-Raf, were seeded in 384-well poly-lysine coated plates (Matrix) at a density of 1000 cells/well with appropriate medium supplemented with 10% FCS and incubated for 16-24 h. Cells were treated for 1.5 or 2 h with increasing doses of compounds (starting dose 10 μM, dilution factor 2.5). At the end of the treatment cells were fixed with p-formaldehyde 3.7% for 15-30 min, then washed twice with D-PBS (80 μL/well) and permeabilized with D-PBS containing 0.1% Triton X-100 and 1% BSA (Sigma-Aldrich) for 15 min at room temperature (staining solution). Anti-phospho-MAPK (T202/Y204) monoclonal antibody E10 (Cell Signaling, cat. #9106) diluted 1:100 was added in staining solution and incubated for 1 h at 37° C. After removal of the primary antibody solution, the anti-mouse Cy™ 2-conjugated (Green) secondary antibody (Amersham) diluted 1:500 in staining solution containing 2 μg/mL DAPI was added. The plate was incubated for 1 h at 37° C., washed twice and then read with Cellomics' ArrayScan VTI (4 fields/well, CytoNucTrans algorithm).
The parameter “MEAN_RingAvgIntenCh2”, which measures the mean cytoplasmatic fluorescence intensity associated to p-MAPK staining, is reported as the final result.

SMILES | IC50 [1] | IC50 [2] | IC50 [3]
CCN(CC)c1nc(-c2c(F)ccc(NS(=O)(=O)c3cc(F)ccc3F)c2F)c(-c2ccncc2)s1 [cmpd. 3, N-{3-[2-(diethylamino)-5-(pyridin-4-yl)-1,3-thiazol-4-yl]-2,4-difluorophenyl}-2,5-difluorobenzenesulfonamide] | 166 nM | > 10000 nM | 1 nM
O=S(=O)(Nc1ccc(F)c(-c2nc(N3CCC(F)(F)CC3)sc2-c2ccncc2)c1F)c1cc(F)ccc1F [cmpd. 14, N-{3-[2-(4,4-difluoropiperidin-1-yl)-5-(pyridin-4-yl)-1,3-thiazol-4-yl]-2,4-difluorophenyl}-2,5-difluorobenzenesulfonamide] | 66 nM | > 10000 nM | 4 nM
O=S(=O)(Nc1cccc(-c2nc(N3CCC(F)(F)CC3)sc2-c2ccncc2)c1F)c1cc(F)ccc1F [cmpd. 18, N-{3-[2-(4,4-difluoropiperidin-1-yl)-5-(pyridin-4-yl)-1,3-thiazol-4-yl]-2-fluorophenyl}-2,5-difluorobenzenesulfonamide] | 127 nM | > 10000 nM | 2 nM
CN1CCC(c2nc(-c3cccc(NS(=O)(=O)c4cc(F)ccc4F)c3F)c(-c3ccncc3)s2)CC1 [cmpd. 19, 2,5-difluoro-N-{2-fluoro-3-[2-(1-methylpiperidin-4-yl)-5-(pyridin-4-yl)-1,3-thiazol-4-yl]phenyl}benzenesulfonamide] | 40 nM | > 10000 nM | 2 nM
O=S(=O)(Nc1cccc(-c2nc(C3CCOCC3)sc2-c2ccncc2)c1F)c1cc(F)ccc1F [cmpd. 20, 2,5-difluoro-N-{2-fluoro-3-[5-(pyridin-4-yl)-2-(tetrahydro-2H-pyran-4-yl)-1,3-thiazol-4-yl]phenyl}benzenesulfonamide] | 78 nM | > 10000 nM | 2 nM
O=S(=O)(Nc1cccc(-c2nc(C3CCN(C4CC4)CC3)sc2-c2ccncc2)c1F)c1cc(F)ccc1F [cmpd. 21, N-{3-[2-(1-cyclopropylpiperidin-4-yl)-5-(pyridin-4-yl)-1,3-thiazol-4-yl]-2-fluorophenyl}-2,5-difluorobenzenesulfonamide] | 23 nM | > 10000 nM | 
Nc1cc(-c2sc(C3CCN(C4CC4)CC3)nc2-c2cccc(NS(=O)(=O)c3cc(F)ccc3F)c2F)ccn1 [cmpd. 22, N-{3-[5-(2-aminopyridin-4-yl)-2-(1-cyclopropylpiperidin-4-yl)-1,3-thiazol-4-yl]-2-fluorophenyl}-2,5-difluorobenzenesulfonamide] | 27 nM | > 10000 nM | 
CC(=O)Nc1cc(-c2sc(C3CCN(C)CC3)nc2-c2cccc(NS(=O)(=O)c3cc(F)ccc3F)c2F)ccn1 [cmpd. 23, N-{4-[4-(3-{[(2,5-difluorophenyl)sulfonyl]amino}-2-fluorophenyl)-2-(1-methylpiperidin-4-yl)-1,3-thiazol-5-yl]pyridin-2-yl}acetamide] | 6 nM | > 10000 nM | 
Nc1cc(-c2sc(C3CCOCC3)nc2-c2cccc(NS(=O)(=O)c3cc(F)ccc3F)c2F)ccn1 [cmpd. 24, N-{3-[5-(2-aminopyridin-4-yl)-2-(tetrahydro-2H-pyran-4-yl)-1,3-thiazol-4-yl]-2-fluorophenyl}-2,5-difluorobenzenesulfonamide] | 15 nM | > 10000 nM | 
CNc1cc(-c2sc(C3CCOCC3)nc2-c2cccc(NS(=O)(=O)c3cc(F)ccc3F)c2F)ccn1 [cmpd. 25, 2,5-difluoro-N-(2-fluoro-3-{5-[2-(methylamino)pyridin-4-yl]-2-(tetrahydro-2H-pyran-4-yl)-1,3-thiazol-4-yl}phenyl)benzenesulfonamide] | 32 nM | > 10000 nM | 
CC(=O)Nc1cc(-c2sc(C3CCN(C4CC4)CC3)nc2-c2cccc(NS(=O)(=O)c3cc(F)ccc3F)c2F)ccn1 [cmpd. 30, N-{4-[2-(1-cyclopropylpiperidin-4-yl)-4-(3-{[(2,5-difluorophenyl)sulfonyl]amino}-2-fluorophenyl)-1,3-thiazol-5-yl]pyridin-2-yl}acetamide] | 3 nM | > 10000 nM | 
CC(=O)Nc1cc(-c2sc(C3CCOCC3)nc2-c2cccc(NS(=O)(=O)c3cc(F)ccc3F)c2F)ccn1 [cmpd. 35, N-{4-[4-(3-{[(2,5-difluorophenyl)sulfonyl]amino}-2-fluorophenyl)-2-(tetrahydro-2H-pyran-4-yl)-1,3-thiazol-5-yl]pyridin-2-yl}acetamide] | 0.6 nM | > 10000 nM | 
CC(=O)NCCNc1cc(-c2sc(C3CCOCC3)nc2-c2cccc(NS(=O)(=O)c3cc(F)ccc3F)c2F)ccn1 [cmpd. 36, N-[2-({4-[4-(3-{[(2,5-difluorophenyl)sulfonyl]amino}-2-fluorophenyl)-2-(tetrahydro-2H-pyran-4-yl)-1,3-thiazol-5-yl]pyridin-2-yl}amino)ethyl]acetamide] | 69 nM | > 10000 nM | 
CNc1cc(-c2sc(C3CCN(C4CC4)CC3)nc2-c2cccc(NS(=O)(=O)c3cc(F)ccc3F)c2F)ccn1 [cmpd. 37, N-(3-{2-(1-cyclopropylpiperidin-4-yl)-5-[2-(methylamino)pyridin-4-yl]-1,3-thiazol-4-yl}-2-fluorophenyl)-2,5-difluorobenzenesulfonamide] | 92 nM | > 10000 nM | 
CNc1cc(-c2sc(C3CCN(C)CC3)nc2-c2cccc(NS(=O)(=O)c3cc(F)ccc3F)c2F)ccn1 [cmpd. 38, 2,5-difluoro-N-(2-fluoro-3-{5-[2-(methylamino)pyridin-4-yl]-2-(1-methylpiperidin-4-yl)-1,3-thiazol-4-yl}phenyl)benzenesulfonamide] | 47 nM | > 10000 nM | 
CN1CCC(c2nc(-c3cccc(NS(=O)(=O)c4cc(F)ccc4F)c3F)c(-c3ccnc(N)c3)s2)CC1 [cmpd. 39, N-{3-[5-(2-aminopyridin-4-yl)-2-(1-methylpiperidin-4-yl)-1,3-thiazol-4-yl]-2-fluorophenyl}-2,5-difluorobenzenesulfonamide] | 27 nM | > 10000 nM | 
COC(=O)N[C@@H](C)CNc1cc(-c2sc(C3CCOCC3)nc2-c2cccc(NS(=O)(=O)c3cc(F)ccc3F)c2F)ccn1 [cmpd. 41, Methyl [(2S)-1-({4-[4-(3-{[(2,5-difluorophenyl)sulfonyl]amino}-2-fluorophenyl)-2-(tetrahydro-2H-pyran-4-yl)-1,3-thiazol-5-yl]pyridin-2-yl}amino)propan-2-yl]carbamate] | 8 nM | > 10000 nM | 
CC(=O)Nc1cc(-c2sc(C(C)(C)C)nc2-c2cccc(NS(=O)(=O)c3cc(F)ccc3F)c2F)ccn1 [cmpd. 42, N-{4-[2-tert-butyl-4-(3-{[(2,5-difluorophenyl)sulfonyl]amino}-2-fluorophenyl)-1,3-thiazol-5-yl]pyridin-2-yl}acetamide] | 0.6 nM | > 10000 nM | 
CC(C)(C)c1nc(-c2cccc(NS(=O)(=O)c3cc(F)ccc3F)c2F)c(-c2ccncc2)s1 [cmpd. 43, N-{3-[2-tert-butyl-5-(pyridin-4-yl)-1,3-thiazol-4-yl]-2-fluorophenyl}-2,5-difluorobenzenesulfonamide] | 12 nM | > 10000 nM | 
CC(=O)Nc1cc(-c2sc(C3CCNCC3)nc2-c2cccc(NS(=O)(=O)c3cc(F)ccc3F)c2F)ccn1 [cmpd. 44, N-{4-[4-(3-{[(2,5-difluorophenyl)sulfonyl]amino}-2-fluorophenyl)-2-(piperidin-4-yl)-1,3-thiazol-5-yl]pyridin-2-yl}acetamide] | 40 nM | > 10000 nM | 
